Results on three molecules are retold here after ChEMBL document CHEMBL5729128, “Phenyl and pyridinyl substituted imidazoles as modulators of RORγT” (2022).

For orientation: Kd means the concentration at which binding is half-saturated.

This assay addresses T1, Nuclear receptor ROR-gamma (Homo sapiens, UniProt P51449).
T1 sequence (P51449 whole entry): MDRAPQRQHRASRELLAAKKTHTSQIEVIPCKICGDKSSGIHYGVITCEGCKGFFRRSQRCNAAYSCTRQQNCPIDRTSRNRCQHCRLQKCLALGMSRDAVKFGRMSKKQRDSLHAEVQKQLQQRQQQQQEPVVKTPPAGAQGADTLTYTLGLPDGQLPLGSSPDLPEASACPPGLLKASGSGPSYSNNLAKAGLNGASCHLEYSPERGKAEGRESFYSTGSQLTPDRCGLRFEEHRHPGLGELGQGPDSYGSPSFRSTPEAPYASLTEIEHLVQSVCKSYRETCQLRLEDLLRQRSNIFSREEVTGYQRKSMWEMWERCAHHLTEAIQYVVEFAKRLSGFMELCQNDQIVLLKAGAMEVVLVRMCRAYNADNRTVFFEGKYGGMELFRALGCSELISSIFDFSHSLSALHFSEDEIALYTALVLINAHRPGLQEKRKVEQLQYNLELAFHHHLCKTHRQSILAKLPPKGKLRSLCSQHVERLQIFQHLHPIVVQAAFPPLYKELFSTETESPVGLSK
As to the kind of experiment: Fluorescence Based Assay: ThermoFluor is a fluorescence based assay that estimates ligand binding affinities by measuring the effect of a ligand on protein thermal stability (Pantoliano, M. W., Petrella, E. C., Kwasnoski, J. D., Lobanov, V. S., Myslik, J., Graf, E., Carver, T., Asel, E., Springer, B. A., Lane, P., and Salemme, F. R. (2001) High-density miniaturized thermal shift assays as a general strategy for drug discovery. J Biomol Screen 6, 429-40, and Matulis, D., Kranz, J. K., Salemme, F. R., and Todd, M. J. (2005) Thermodynamic stability of carbonic anhydrase: measurements of binding affinity and stoichiometry using ThermoFluor. Biochemistry 44, 5258-66). This approach is applicable to a wide variety of systems, and rigorous in theoretical interpretation through quantitation of equilibrium binding constants (KD).
For the molecule `CCc1nc(C(=O)NC[C@]2(O)CC[C@@H](S(C)(=O)=O)CC2)c(C)n1-c1ncc(CC(C)(C)C(F)(F)F)cc1OC(F)F`, the Kd is 23 nM. For `CCc1nc(C(=O)NC[C@]2(O)CC[C@@H](S(C)(=O)=O)CC2)c(Cl)n1-c1ncc(CCCC(F)(F)F)cc1OC(F)F`, the dissociation constant (Kd) was 87 nM. With `CCc1nc(C(=O)NC[C@H]2CC[C@H](S(C)(=O)=O)CC2)c(Cl)n1-c1ncc(CCCC(F)(F)F)cc1OC(F)F` the figure was 15 nM.
